According to patent US20130122024A1, “NEW BINDER-DRUG CONJUGATES (ADCS) AND USE THEREOF” (Bayer Intellectual Property GmbH, priority 2011, published 2013):
Where a name gives a salt, the structure may show the parent alone. Square brackets hold non-standard residues; d marks the D form. Peptide text beside a SMILES is read from it. * marks the point of attachment. X2 = CC(C)[C@@H](C(=O)*)N(C)CCCCCCN1C(=O)CC(SC[C@H](N)C(=O)O)C1=O; X1 = CC(C)[C@@H](C(=O)*)N(C)CCCCCC(=O)NCCCC[C@H](N)C(=O)O; Dolaproine = CO[C@@H]([C@@H]1CCCN1)[C@@H](C)C(=O)O; Dil = CC[C@H](C)[C@H](NC)[C@@H](CC(=O)O)OC; Oxazinan2yl(1,2) = C1CCN(*)OC1

What was measured:
tubulin = experiment: Fluorescence-based microtubule (tubulin) polymerization assay; type: biochemical
Procedure: Tubulin polymerization was investigated using the “Fluorescence-based Microtubule Polymerisation Assay Kit” from Cytoskeleton (Denver, Colo., USA; order number: BK011). With this assay, GTP is added to unpolymerized tubulin, allowing polymerization to take place spontaneously. The assay is based on the binding of the fluorophore 4′,6-di-amidino-2-phenylindole (DAPI) to tubulin. Free and bound DAPI can be differentiated on the basis of different emission spectra.
[…] In addition to the buffer control, paclitaxel, with a polymerization-increasing effect, and vinblastin, with a polymerization inhibiting effect, were run additionally as assay controls. Measurement was carried out using 96-well plates with a half base area. The kinetics of the tubulin polymerization were monitored in a Fluorimeter at 37° C. for 1 hour. The excitation wavelength was 355 nm, and emission was monitored at 460 nm. For the region of linear increase within the first 10 minutes, a calculation was made of the change in fluorescence per minute (ΔF/min), which represents the polymerization rate of the microtubuli. The potency of the test substances was quantified on the basis of their respective reduction of the polymerization rate.
The reduction in the tubulin polymerization rate occurs in dependence on the concentration of the test substance added.

Caco-2 cells = experiment: Caco-2 flux assay for cell permeability; type: in vitro ADME; settings: 2 hours, B to A
Procedure: The cell permeability of a substance can be investigated by means of in vitro testing in a flux assay using Caco-2 cells [M. D. Troutman and D. R. Thakker, Pharm. Res. 20 (8), 1210-1224 (2003)]. For this purpose, the cells were cultured for 15-16 days on 24-well filter plates. For the determination of permeation, the respective working example was applied in a HEPES buffer to the cells either apically (A) or basally (B) and incubated for 2 hours. After 0 hours and after 2 hours, samples were taken from the cis and trans compartments. The samples were separated by HPLC (Agilent 1200, Böblingen, Germany) using reverse phase columns. The HPLC system was coupled via a Turbo Ion Spray Interface to a Triple Quadropol mass spectrometer API 4000 (Applied Biosystems Applera, Darmstadt, Germany). The permeability was evaluated on the basis of a Papp value, which was calculated using the formula published by Schwab et al. [D. Schwab et al., J. Med. Chem. 46, 1716-1725 (2003)].

[1] = concentration of toxophore 10 μM
[2] = concentration of toxophore 1 μM

Compound | Tubulin polymerization in the presence of toxophore in [%]. Tubulin polymerization rate at 1 μM MMAF set at 100% (tubulin; [1]) [%] | Papp (B-A) (Caco-2 cells) [nm/s] | Tubulin polymerization in the presence of toxophore in [%]. Tubulin polymerization rate at 1 μM MMAF set at 100% (tubulin; [2]) [%]
CC[C@H](C)[C@@H]([C@@H](CC(=O)N1CCC[C@H]1[C@H](OC)[C@@H](C)C(=O)N[C@@H](Cc1c[nH]c2ccccc12)C(=O)O)OC)N(C)C(=O)[C@@H](NC(=O)[C@H](C(C)C)N(C)CCCC(=O)NNC(=O)CCCCCN1C(=O)CC(SC[C@H](N)C(=O)O)C1=O)C(C)C (stereo partly drawn) [Example 63, N-(4-{2-[6-(3-{[(2R)-2-Amino-2-carboxyethyl]sulphanyl}-2,5-dioxopyrrolidin-1-yl)hexanoyl]hydrazino}-4-oxobutyl)-N-methyl-L-valyl-N-[(3R,4S,5S)-1-{(2S)-2-[(1R,2R)-3-{[(1S)-1-carboxy-2-(1H-indol-3-yl)ethyl]amino}-1-methoxy-2-methyl-3-oxopropyl]pyrrolidin-1-yl}-3-methoxy-5-methyl-1-oxoheptan-4-yl]-N-methyl-L-valinamide] | 27 | 1.6 | 
CC[C@H](C)[C@@H]([C@@H](CC(=O)N1CCC[C@H]1[C@H](OC)[C@@H](C)C(=O)N[C@@H](Cc1c[nH]c2ccccc12)C(N)=O)OC)N(C)C(=O)[C@@H](NC(=O)[C@H](C(C)C)N(C)CCCCCCN1C(=O)CC(SC[C@H](N)C(=O)O)C1=O)C(C)C (stereo partly drawn) [Example 65, N-[6-(3-{[(2R)-2-Amino-2-carboxyethyl]sulphanyl}-2,5-dioxopyrrolidin-1-yl)hexyl]-N-methyl-L-valyl-N-[(3R,4S,5S)-1-{(2S)-2-[(1R,2R)-3-{[(2S)-1-amino-3-(1H-indol-3-yl)-1-oxopropan-2-yl]amino}-1-methoxy-2-methyl-3-oxopropyl]pyrrolidin-1-yl}-3-methoxy-5-methyl-1-oxoheptan-4-yl]-N-methyl-L-valinamide] (X2-V[Dil][Dolaproine]W-NH2) | 64 | 5 | 
CC[C@H](C)[C@@H]([C@@H](CC(=O)N1CCC[C@H]1[C@H](OC)[C@@H](C)C(=O)N[C@@H](Cc1ccc(O)cc1)C(=O)N1CCCCO1)OC)N(C)C(=O)[C@@H](NC(=O)[C@H](C(C)C)N(C)CCCCCC(=O)NCCCC[C@H](N)C(=O)O)C(C)C [Example 117, N-(6-{[(5S)-5-Amino-5-carboxypentyl]amino}-6-oxohexyl)-N-methyl-L-valyl-N-[(3R,4S,5S)-1-{(2S)-2-[(1R,2R)-3-{[(2S)-3-(4-hydroxyphenyl)-1-(1,2-oxazinan-2-yl)-1-oxopropan-2-yl]amino}-1-methoxy-2-methyl-3-oxopropyl]pyrrolidin-1-yl}-3-methoxy-5-methyl-1-oxoheptan-4-yl]-N-methyl-L-valinamide trifluoroacetate] (X1-V[Dil][Dolaproine]Y-{Oxazinan2yl(1,2)}) | 21 | 1.5 | 88
CC[C@H](C)[C@@H]([C@@H](CC(=O)N1CCC[C@H]1[C@H](OC)[C@@H](C)C(=O)N[C@@H](Cc1c[nH]c2ccccc12)C(=O)N1CCCCO1)OC)N(C)C(=O)[C@@H](NC(=O)[C@H](C(C)C)N(C)CCCCCC(=O)NCCCC[C@H](N)C(=O)O)C(C)C [Example 105, N-(6-{[(5S)-5-Amino-5-carboxypentyl]amino}-6-oxohexyl)-N-methyl-L-valyl-N-[(3R,4S,5S)-1-{(2S)-2-[(1R,2R)-3-{[(2S)-3-(1H-indol-3-yl)-1-(1,2-oxazinan-2-yl)-1-oxopropan-2-yl]amino}-1-methoxy-2-methyl-3-oxopropyl]pyrrolidin-1-yl}-3-methoxy-5-methyl-1-oxoheptan-4-yl]-N-methyl-L-valinamide trifluoroacetate] (X1-V[Dil][Dolaproine]W-{Oxazinan2yl(1,2)}) | 1 | 2 | 45
